Measurements taken from patent US7091192B1, “Linear cyclodextrin copolymers” (California Institute of Technology, priority 1998, dated 2006).

How the values were obtained:
KB cell line = assay: MTT toxicity assay, small molecule delivery to cultured cells (KB)
Method: (§1) Media containing doxorubicin and doxorubicin/CD-polymer complexes at various concentrations were applied to cultured cell lines. After 5 hours, the media was removed and replaced with fresh media. […] ([…], “Culture of Animal Cells”, 3rd ed., Wiley-Liss: New York (1994)). […] For receptor-mediated delivery, a ligand such a folate is covalently attached to the CD-polymer used for doxorubicin complexation.

[1] = test system: KB-VI (a multidrug resistant derivative of KB) cell line; assay: MTT toxicity assay, small molecule delivery to cultured cells (KB-VI)
Method: as §1

[2] = pH 7.1; Husain et al., Applied Spectroscopy 1992; cited from earlier work
[3] = Homo sapiens, KB, 5 h, read-out: IC50 (μM of doxorubicin)

Compound: COc1cccc2c1C(=O)c1c(O)c3c(c(O)c1C2=O)C[C@@](O)(C(=O)CO)C[C@@H]3O[C@H]1C[C@H](N)[C@H](O)[C@H](C)O1 [doxorubicin]
- IC50 (KB cell line; [3]): ~0.1 µM
- IC50 [1, 3]: ~10 µM

Compound: β-cyclodextrin(cystamine)-DTBP Copolymer [Copolymer 15]
- Toxicity to KB cells in the absence of doxorubicin (KB cell line): not toxic
- Toxicity to KB-VI cells in the absence of doxorubicin [1]: not toxic

Compound: OC[C@H]1O[C@@H]2O[C@H]3[C@H](O)[C@@H](O)[C@@H](O[C@H]4[C@H](O)[C@@H](O)[C@@H](O[C@H]5[C@H](O)[C@@H](O)[C@@H](O[C@H]6[C@H](O)[C@@H](O)[C@@H](O[C@H]7[C@H](O)[C@@H](O)[C@@H](O[C@H]8[C@H](O)[C@@H](O)[C@@H](O[C@H]1[C@H](O)[C@H]2O)O[C@@H]8CO)O[C@@H]7CO)O[C@@H]6CO)O[C@@H]5CO)O[C@@H]4CO)O[C@@H]3CO [β-CD, β-cyclodextrin]
- Association constant between β-CD and doxorubicin [2]: 210 M⁻¹
